# Laboratory results reported in patent US20020182736A1, “Methods to measure lipid antioxidant activity” (TRUSTEES OF TUFTS COLLEGE, priority 2001, published 2002).
# Values joined by “and” are separate entries in the source; they are usually repeats but may differ in a detail not shown here. Identical values can stand only once. “Also recorded” adds a separate entry of the source. Like-named read-outs stand apart in the source and are kept apart here.
# How the values were obtained:
# [1] = tested on: lipid plasma compartment oxidation; test: Lipid plasma compartment oxidation, BODIPY 581/591 green fluorescence
# Protocol: Plasma oxidation was measured fluorometrically using two different fluorescent probes: DCFH and BODIPY. DCFH-DA and BODIPY stock solutions were prepared in EtOH and dimethylsulfoxide, respectively, stored under nitrogen at −20° C. and used within two months. The final plasma dilution was 1:5 (v/v).
# In the experiments using β-carotene, to avoid the filtering effect due to the carotenoid, the oxidation product of BODIPY was also detected at λex=520 and at λem-540 nm. The fluorescence measurements were carried out using a Perkin Elmer spectrofluorometer (model 650-10s) with 1 cm path length fluorescence cuvettes.
# Briefly, β-carotene (dissolved in stabilized THF, 10 mg/ml) or α-tocopherol (4.3 mg/ml in EtOH) were added to plasma to reach a final concentration of 50 μM; the samples were then vortexed for 30 sec and incubated at 37±1° C. for 1 to 6 hr under nitrogen. […] Controls were prepared in the same way using solvent only.
# The effect of adding the membrane soluble antioxidants, α-tocopherol (in EtOH) and β-carotene (in THF), pre-incubated with plasma, was studied. […] Values are mean±SD of five independent experiments. Statistical analysis: one-way ANOVA with Tukey's post test; *p<0.05, **p<0.01.
# To monitor the aqueous phase oxidizability, AAPH was used as a hydrophilic radical generator and coupled to DCFH was used as the indicator.
# [2] = tested on: oxidation of lipid compartment of plasma; test: Lipid compartment oxidizability of plasma with BHT standard (MeO-AMVN, BODIPY 581/591); details: for Green Fluorescence, 25 μM: equals Plasma minus Plasma + BHT
# Protocol: In order to standardize the method to determine the lipophilic antioxidant capacity, butylated hydroxytoluene (BHT), a phenolic synthetic antioxidant, was chosen as an internal standard. Polyenes and certain foods were packaged with added BHT to protect against oxidation. Plasma was incubated with BODIPY 581/591 in the presence and absence of BHT (25 & 50 µM) at 37° C. for 30 min, and determined for oxidizability in the lipid compartment. There was no significant difference among incubation times of 30 min, 1 hr and 2 hr, on the incorporation of BHT in the lipid compartment of plasma (FIG. 14). […] The concentration of BHT may also be reduced to a level sufficient to produce a detectable signal.
# [3] = tested on: aqueous peroxyl radicals generated by AAPH in human plasma; test: Consumption of endogenous plasma antioxidants induced by AAPH (HPLC); details: for percentage remaining / Residual Amount (%) / Residual Amount (%) of Cryptoxanthin / Residual Amount (%) of Lutein / Residual Amount (%) of Lycopene / Residual Amount (%) of Zeaxanthin / Residual Amount (%) of β-Carotene: AAPH 20 mM for 120 min; for percentage remaining / Residual Amount (%): no EGCG (control); for time to complete consumption in plasma: 37° C
# Protocol: In a second similar experiment, other antioxidants were studied. […] Echinenone in ethanol was added as an internal standard.
# [4] = tested on: aqueous plasma compartment oxidation; test: Aqueous plasma compartment oxidation, DCFH to DCF fluorescence; design: species or system human; details: for protective effect on aqueous compartment oxidation: 180 min of incubation
# Protocol: The final plasma dilution was 1:5 (v/v).
# DCFH was prepared from DCFH-DA by basic hydrolysis. Briefly 500 μl of DCFH-DA stock solution (1 mM) was mixed with 2 ml of NaOH (0.01 N at 4° C.) for 20 minutes while protected from the light. The mixture was then neutralized with 2 ml of HCl (0.01 N), diluted with PBS to a final concentration of 10 μM and stored in ice for no longer than 8 hrs (working solution); an aliquot of 100 μl was added to 200 μl of plasma and then diluted to a final volume of 1 ml with PBS. […] The excitation wavelength (λex) was set at […] (slit 5 nm) and emission (λem) at 520 nm (slit 5 nm).
# Values are mean±SD of five independent experiments. […] Samples were incubated at 37° C. in the dark and at fixed times the DCF content measured by fluorescence (λex=502 nm, λem=520 nm).
# [5] = ESR quenching of α-tocopheroxyl radical generated from α-tocopherol and DPPH; assay type: biochemical; details: for IC50: read-out: IC50 quenching of α-TOC-O. ESR signal
# Protocol: α-TOC+DPPH→α-TOC-O.+DPPHH [1]
# For sample preparation, α-tocopherol (900 μM) and DPPH (600 μM) in ethanol solution were mixed for 20 sec and 50 μl of the reaction mixture transferred into a capillary ESR tube. (−)-Epigallocatechin-(3)-gallate (EGCG) was added to the mixture immediately after DPPH decolorization (30 sec after DPPH addition).
# [6] = cited from earlier work; for redox potential E: E(EGCG-O., H+/EGCG-OH), E(A−., H+/AH−)
# [7] = tested on: lipid peroxyl radicals generated by MeO-AMVN in human plasma; test: Consumption of endogenous plasma antioxidants induced by MeO-AMVN (HPLC); details: for Residual Amount (%) of Cryptoxanthin / Residual Amount (%) of Lutein / Residual Amount (%) of Lycopene / Residual Amount (%) of Zeaxanthin / Residual Amount (%) of β-Carotene: MeO-AMVN 2 mM for 60 min; for time to total disappearance in plasma: human plasma 1:5 with PBS, 37° C
# Protocol: After an overnight fast (10-12 h), blood from two healthy donors was collected in ethylenediaminetetraacetic acid (EDTA)-containing tubes. In order to reduce the variability of different donors, blood samples from these two subjects were collected weekly for the duration of the experiment. Immediately after collection, the samples were placed on ice and protected from light. Plasma was obtained by centrifugation at 800 g for 20 min at 4° C. and immediately used for the in vitro studies.
# In the presence of 10-20 mM of AAPH, the flux of aqueous radicals calculated on the basis of the known rate of free radical generation from AAPH at 37° C.
# In order to obtain homogeneous incorporation, the lipid soluble initiators were added slowly to the samples with a micro-syringe (10 μl) with stirring. The samples were then vortexed for 10 sec and incubated at 37±1° C. under aerobic conditions.
# In a second similar experiment, other antioxidants were studied. […] A 100 μl aliquot of the reaction mixture was extracted for β-carotene and α-tocopherol analysis. Echinenone in ethanol was added as an internal standard. The mixture was extracted with CHCl3:CH3OH (2:1 v/v) containing 0.2% BHT and hexane containing 0.1% BHT, dried under nitrogen, redissolved in ethanol, and injected into an HPLC system with a C30 column (3 μm, 150×4.6 mm, YMC, Wilmington, N.C.).
# For water-soluble antioxidant measurement, the mixtures were immediately deproteinized with perchloric acid (250 mM).
# Results are expressed as percentages with respect to control samples prepared without the azo-compounds.
# [8] = Subject 1, 2 hr incubation w/1 mM MeO-AMVN
# [9] = Subject 1, 3 hr incubation w/1 mM MeO-AMVN
# [10] = Subject 2, 2 hr incubation w/1 mM MeO-AMVN
# [11] = Subject 2, 3 hr incubation w/1 mM MeO-AMVN
# [12] = Subject 3, 2 hr incubation w/1 mM MeO-AMVN
# [13] = Subject 3, 3 hr incubation w/1 mM MeO-AMVN
# [14] = 20 mM AAPH, human plasma 1:5 with PBS
compound,measurement,setting,value
"CC(C)CC(C)(C#N)N=NC(C)(C#N)CC(C)C (stereo not shown) [AMVN, 2,2′-azobis(2,4-dimethylvaleronitrile)]",change in BODIPY fluorescence in plasma,"[1]; 2 mM initiator, 37° C",no observed changes; also recorded: No change
"Cc1cc(C(C)(C)C)c(O)c(C(C)(C)C)c1 [BHT, butylated hydroxytoluene]",protection of oxidation of lipid compartment,[2]; BHT added to plasma,78%
same,"Green Fluorescence, Plasma + BHT",[2]; [8],107 ± 1.4
same,"Green Fluorescence, 25 μM",[2]; [8],382
same,"Green Fluorescence, Plasma + BHT",[2]; [9],217 ± 4.0
same,"Green Fluorescence, 25 μM",[2]; [9],806
same,"Green Fluorescence, Plasma + BHT",[2]; [10],123 ± 7.3
same,"Green Fluorescence, 25 μM",[2]; [10],347
same,"Green Fluorescence, Plasma + BHT",[2]; [11],223 ± 8.9
same,"Green Fluorescence, 25 μM",[2]; [11],650
same,"Green Fluorescence, Plasma + BHT",[2]; [12],142 ± 8.0
same,"Green Fluorescence, 25 μM",[2]; [12],245
same,"Green Fluorescence, Plasma + BHT",[2]; [13],250 ± 13.3
same,"Green Fluorescence, 25 μM",[2]; [13],551
"CC1=C(/C=C/C(C)=C/C=C/C(C)=C/C=C/C=C(C)/C=C/C=C(C)/C=C/C2=C(C)C[C@@H](O)CC2(C)C)C(C)(C)CCC1 [Cryptoxanthin, cryptoxanthin]",percentage remaining / Residual Amount (%),[3],18.94 ± 3.86%
same,percentage remaining / Residual Amount (%),[3]; listed as cryptoxanthin,18.94±3.86%
"O=C(O[C@@H]1Cc2c(O)cc(O)cc2O[C@@H]1c1cc(O)c(O)c(O)c1)c1cc(O)c(O)c(O)c1 [EGCG, (−)-Epigallocatechin-(3)-gallate]",Residual Amount (%) of Cryptoxanthin,[3]; EGCG 0.5 μM,28.46 ± 3.35%
same,Residual Amount (%) of Lutein,[3]; EGCG 0.5 μM,26.05 ± 4.26%
same,Residual Amount (%) of Lycopene,[3]; EGCG 0.5 μM,9.35 ± 5.18%
same,Residual Amount (%) of Zeaxanthin,[3]; EGCG 0.5 μM,25.61 ± 6.53%
same,Residual Amount (%) of β-Carotene,[3]; EGCG 0.5 μM,41.51 ± 6.64%
same,Residual Amount (%) of Cryptoxanthin,[3]; EGCG 1 μM,36.21 ± 1.71 %
same,Residual Amount (%) of Lutein,[3]; EGCG 1 μM,40.64 ± 5.30 %
same,Residual Amount (%) of Lycopene,[3]; EGCG 1 μM,18.06 ± 2.44%
same,Residual Amount (%) of Zeaxanthin,[3]; EGCG 1 μM,48.78 ± 4.81 %
same,Residual Amount (%) of β-Carotene,[3]; EGCG 1 μM,54.38 ± 4.86 %
same,Residual Amount (%) of Cryptoxanthin,[3]; EGCG 5 μM,48.88 ± 2.08 %
same,Residual Amount (%) of Lutein,[3]; EGCG 5 μM,56.05 ± 4.42 %
same,Residual Amount (%) of Lycopene,[3]; EGCG 5 μM,25.26 ± 1.02 %
same,Residual Amount (%) of Zeaxanthin,[3]; EGCG 5 μM,58.89 ± 5.10 %
same,Residual Amount (%) of β-Carotene,[3]; EGCG 5 μM,58.63 ± 3.30 %
same,Residual Amount (%) of Cryptoxanthin,[3]; EGCG 10 μM,56.45 ± 5.00 %
same,Residual Amount (%) of Lutein,[3]; EGCG 10 μM,63.13 ± 8.15 %
same,Residual Amount (%) of Lycopene,[3]; EGCG 10 μM,32.30 ± 4.24 %
same,Residual Amount (%) of Zeaxanthin,[3]; EGCG 10 μM,62.36 ± 11.92 %
same,Residual Amount (%) of β-Carotene,[3]; EGCG 10 μM,64.35 ± 6.37 %
same,effect on consumption of ascorbic acid and uric acid,"[3]; EGCG 0.5-10 μM, 20 mM AAPH",ineffective
same,"concentration at which activity starts, aqueous compartment","[4]; AAPH 20 mM, 180 min",0.25 µM
same,IC50,"[4]; AAPH 20 mM, after 180 min of incubation",0.72 µM
same,protective effect on aqueous compartment oxidation,"[4]; EGCG 10 μM, AAPH 20 mM",93.02±2.02%
same,protective effect on aqueous compartment oxidation,"[4]; EGCG 0.25 AM, AAPH 20 mM",20.25±0.34%
same,antioxidant efficiency in the aqueous in respect to the lipid domain,[4]; from IC50 after 180 min,six times greater
same,IC50,[5]; 60 sec after the beginning of the reaction,12.1 µM
same,% inhibition of ESR signal,"[5]; EGCG 2 μM, 60 sec after the beginning of the reaction",8±1.3%
same,quenching effect on ESR signal,[5]; EGCG 25 μM,almost complete disappearance
same,redox potential E,[6],0.48 V
same,ΔE to reduce tocopheroxyl radical,[6]; physiological pH,0.06 V
same,protective effect on lipid compartment oxidation,"[1]; EGCG 0.5 μM, MeO-AMVN 2 mM, 180 min of incubation",13.01±0.56%
same,protection of lipid compartment oxidation,"[1]; EGCG 10 μM, MeO-AMVN 2 mM, 180 min of incubation",68±2.3%
same,"lowest / starting effective concentration, lipid compartment","[1]; MeO-AMVN 2 mM, 180 min",0.5 µM and 0.5 to 1 µM
same,IC50,"[1]; read-out: IC50 in lipid compartment, MeO-AMVN 2 mM, after 180 min of incubation",4.37 µM
same,Residual Amount (%) of Cryptoxanthin,[7]; EGCG 0.5 μM,54.38 ± 2.74%
same,Residual Amount (%) of Lutein,[7]; EGCG 0.5 μM,32.57 ± 4.14%
same,Residual Amount (%) of Lycopene,[7]; EGCG 0.5 μM,20.15 ± 3.22%
same,Residual Amount (%) of Zeaxanthin,[7]; EGCG 0.5 μM,47.69 ± 5.85%
same,Residual Amount (%) of β-Carotene,[7]; EGCG 0.5 μM,51.95 ± 1.68%
same,Residual Amount (%) of Cryptoxanthin,[7]; EGCG 1 μM,52.36 ± 0.79%
same,Residual Amount (%) of Lutein,[7]; EGCG 1 μM,33.75 ± 3.94%
same,Residual Amount (%) of Lycopene,[7]; EGCG 1 μM,19.76 ± 2.62%
same,Residual Amount (%) of Zeaxanthin,[7]; EGCG 1 μM,49.64 ± 2.14%
same,Residual Amount (%) of β-Carotene,[7]; EGCG 1 μM,50.15 ± 3.35%
same,Residual Amount (%) of Cryptoxanthin,[7]; EGCG 5 μM,45.16 ± 3.09%
same,Residual Amount (%) of Lutein,[7]; EGCG 5 μM,44.64 ± 5.50%
same,Residual Amount (%) of Lycopene,[7]; EGCG 5 μM,23.56 ± 1.78%
same,Residual Amount (%) of Zeaxanthin,[7]; EGCG 5 μM,44.31 ± 0.94%
same,Residual Amount (%) of β-Carotene,[7]; EGCG 5 μM,57.73 ± 0.54%
same,% α-tocopherol remaining,"[7]; EGCG 10 μM, MeO-AMVN",96.71±1.46%
same,Residual Amount (%) of Cryptoxanthin,[7]; EGCG 10 μM,41.84 ± 1.60%
same,Residual Amount (%) of Lutein,[7]; EGCG 10 μM,40.36 ± 4.03%
same,Residual Amount (%) of Lycopene,[7]; EGCG 10 μM,26.72 ± 0.94%
same,Residual Amount (%) of Zeaxanthin,[7]; EGCG 10 μM,42.67 ± 2.04%
same,Residual Amount (%) of β-Carotene,[7]; EGCG 10 μM,59.13 ± 3.72%
same,sparing of carotenoids depletion,"[7]; EGCG 0.5-10 μM, MeO-AMVN",ineffective; also recorded: failed to prevent
"CC1=C[C@H](O)CC(C)(C)[C@H]1/C=C/C(C)=C/C=C/C(C)=C/C=C/C=C(C)/C=C/C=C(C)/C=C/C1=C(C)C[C@@H](O)CC1(C)C [Lutein, lutein]",percentage remaining / Residual Amount (%),[3],12.82 ± 4.85%
same,percentage remaining / Residual Amount (%),[3]; listed as lutein,12.82±4.85%
"CC(C)=CCC/C(C)=C/C=C/C(C)=C/C=C/C(C)=C/C=C/C=C(C)/C=C/C=C(C)/C=C/C=C(\C)CCC=C(C)C [Lycopene, lycopene]",percentage remaining / Residual Amount (%),[3],8.49 ± 5.20%
same,percentage remaining / Residual Amount (%),[3]; listed as lycopene,8.49±5.20%
"CC1=C(/C=C/C(C)=C/C=C/C(C)=C/C=C/C=C(C)/C=C/C=C(C)/C=C/C2=C(C)C[C@@H](O)CC2(C)C)C(C)(C)C[C@H](O)C1 [Zeaxanthin, zeaxanthin]",percentage remaining / Residual Amount (%),[3],17.50 ± 5.98%
same,percentage remaining / Residual Amount (%),[3]; listed as zeaxanthin,17.50±5.98%
O=C1O[C@H]([C@@H](O)CO)C(O)=C1O [ascorbic acid],time to complete consumption in plasma,[3]; [14],≤ 15 min
same,IC50,[5]; unit inferred,14.2 µM
same,redox potential E,[6],0.28 V
same,time to total disappearance in plasma,[7]; 2 mM MeO-AMVN,30 min
O=c1[nH]c(=O)c2[nH]c(=O)[nH]c2[nH]1 [uric acid],time to complete consumption in plasma,[3]; [14],≤ 180 min
same,time to total disappearance in plasma,[7]; 2 mM MeO-AMVN,300 min
Cc1c(C)c2c(c(C)c1O)CC[C@@](C)(CCC[C@H](C)CCC[C@H](C)CCCC(C)C)O2 [α-tocopherol],time to almost complete consumption in plasma,"[3]; 10-20 mM AAPH, human plasma 1:5 with PBS",≤ 30 min
same,percentage remaining / Residual Amount (%),[3],3.86±0.94%
same,time to almost total depletion,[7]; 2 mM MeO-AMVN,60 min
same,content reduced by,"[7]; 2 mM MeO-AMVN, at 30 min",42%
same,% α-tocopherol remaining,"[7]; control without EGCG, MeO-AMVN",16.43±1.72%
"CC1=C(/C=C/C(C)=C/C=C/C(C)=C/C=C/C=C(C)/C=C/C=C(C)/C=C/C2=C(C)CCCC2(C)C)C(C)(C)CCC1 [β-Carotene, β-carotene]",percentage remaining / Residual Amount (%),[3],28.89±6.17%
